Measurements published in patent publication US9376423B2, “PKC-epsilon inhibitors” (The Regents of the University of California, priority 2010, dated 2016).
Where two headings read alike, the source gives them in different places. Values belong to the compound of their own block, whether it stands above or below them.

What was measured:
Assay type in all cases: biochemical
PKCε [1] = biological target: T1, PKCε (Homo sapiens, UniProt Q02156); test: FRET based LANCE Ultra kinase assay
T1 sequence (Q02156 1-737): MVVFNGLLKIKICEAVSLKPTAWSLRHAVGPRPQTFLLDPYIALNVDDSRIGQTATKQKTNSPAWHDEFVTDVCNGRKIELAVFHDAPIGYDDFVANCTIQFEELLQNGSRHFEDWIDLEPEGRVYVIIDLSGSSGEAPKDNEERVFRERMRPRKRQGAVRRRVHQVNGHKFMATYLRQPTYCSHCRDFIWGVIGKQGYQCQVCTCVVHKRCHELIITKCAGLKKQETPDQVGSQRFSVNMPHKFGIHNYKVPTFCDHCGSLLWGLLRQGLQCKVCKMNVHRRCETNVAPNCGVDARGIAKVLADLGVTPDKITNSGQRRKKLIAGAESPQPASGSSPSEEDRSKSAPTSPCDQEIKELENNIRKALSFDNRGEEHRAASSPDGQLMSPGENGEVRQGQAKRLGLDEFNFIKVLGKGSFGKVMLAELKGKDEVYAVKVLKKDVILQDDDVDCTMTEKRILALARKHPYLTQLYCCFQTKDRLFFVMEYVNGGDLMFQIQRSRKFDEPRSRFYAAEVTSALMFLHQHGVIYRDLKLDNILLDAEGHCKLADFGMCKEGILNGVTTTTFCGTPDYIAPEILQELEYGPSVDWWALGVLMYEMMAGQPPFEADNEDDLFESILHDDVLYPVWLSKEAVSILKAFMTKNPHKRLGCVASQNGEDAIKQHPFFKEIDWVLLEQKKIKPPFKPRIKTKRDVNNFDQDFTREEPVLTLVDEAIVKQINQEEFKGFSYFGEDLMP
Description: Certain compounds of this invention were tested in the captioned assay.

PKCε [2] = biological target: T1, PKCε; test: Inhibition of PKCε (Example 4); details: for IC50: ± SE, read-out: Log IC50 (M) PKCε (converted)
PKCδ = biological target: T2, PKCδ (Homo sapiens, UniProt Q05655); test: Inhibition of novel PKCδ (Example 4); details: n = 3; for inhibition at 10 µM: 10 μM inhibitor, read-out: Percent inhibition of PKC activity, PKCδ; for IC50: ± SE, read-out: Log IC50 (M) PKCδ (converted)
T2 construct: purchased Invitrogen (Carlsbad, Calif., USA)
T2 sequence (Q05655 whole entry): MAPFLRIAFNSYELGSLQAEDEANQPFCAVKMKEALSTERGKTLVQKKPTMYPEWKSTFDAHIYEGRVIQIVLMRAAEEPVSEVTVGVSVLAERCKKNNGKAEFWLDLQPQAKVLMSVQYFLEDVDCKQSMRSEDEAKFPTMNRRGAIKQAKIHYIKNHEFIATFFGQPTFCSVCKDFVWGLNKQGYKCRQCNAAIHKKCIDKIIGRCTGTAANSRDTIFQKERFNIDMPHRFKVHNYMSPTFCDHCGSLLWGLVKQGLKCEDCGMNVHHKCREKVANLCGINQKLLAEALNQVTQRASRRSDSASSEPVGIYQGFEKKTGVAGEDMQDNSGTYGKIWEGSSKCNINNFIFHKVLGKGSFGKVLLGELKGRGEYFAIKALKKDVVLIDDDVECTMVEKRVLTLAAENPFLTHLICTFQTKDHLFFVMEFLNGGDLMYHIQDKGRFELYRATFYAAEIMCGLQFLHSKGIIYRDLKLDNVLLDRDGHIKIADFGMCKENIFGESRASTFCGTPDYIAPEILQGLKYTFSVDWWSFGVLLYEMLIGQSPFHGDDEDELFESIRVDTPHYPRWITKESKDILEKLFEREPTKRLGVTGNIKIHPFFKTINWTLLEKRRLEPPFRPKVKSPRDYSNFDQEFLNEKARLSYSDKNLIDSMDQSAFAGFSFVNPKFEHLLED
From the text: (§1) Compound selectivity for inhibiting PKCε and not other PKC isozymes or ROCK1 can be determined according to the following assay. Specificity counter screens can be performed against one member of each subclass of PKCs (conventional, novel and atypical).
(§2) For example, to measure inhibition of conventional PKCγ, novel PKCδ, and atypical PKCζ, the same kinase assay disclosed above for PKCε can be used with recombinant human PKCγ, PKCδ, or PKCζ purchased from Invitrogen (Carlsbad, Calif., USA) in place of PKCε, with 0.4 mM CaCl2 assay buffer for PKCγ.

PKCζ = biological target: T3, PKCζ (Homo sapiens, UniProt Q05513); test: Inhibition of atypical PKCζ (Example 4); details: for activity against atypical PKCζ: 10 μM; for inhibition at 10 µM: 10 μM inhibitor, n = 3, read-out: Percent inhibition of PKC activity, PKCζ
T3 construct: purchased Invitrogen (Carlsbad, Calif., USA)
T3 sequence (Q05513 1-592): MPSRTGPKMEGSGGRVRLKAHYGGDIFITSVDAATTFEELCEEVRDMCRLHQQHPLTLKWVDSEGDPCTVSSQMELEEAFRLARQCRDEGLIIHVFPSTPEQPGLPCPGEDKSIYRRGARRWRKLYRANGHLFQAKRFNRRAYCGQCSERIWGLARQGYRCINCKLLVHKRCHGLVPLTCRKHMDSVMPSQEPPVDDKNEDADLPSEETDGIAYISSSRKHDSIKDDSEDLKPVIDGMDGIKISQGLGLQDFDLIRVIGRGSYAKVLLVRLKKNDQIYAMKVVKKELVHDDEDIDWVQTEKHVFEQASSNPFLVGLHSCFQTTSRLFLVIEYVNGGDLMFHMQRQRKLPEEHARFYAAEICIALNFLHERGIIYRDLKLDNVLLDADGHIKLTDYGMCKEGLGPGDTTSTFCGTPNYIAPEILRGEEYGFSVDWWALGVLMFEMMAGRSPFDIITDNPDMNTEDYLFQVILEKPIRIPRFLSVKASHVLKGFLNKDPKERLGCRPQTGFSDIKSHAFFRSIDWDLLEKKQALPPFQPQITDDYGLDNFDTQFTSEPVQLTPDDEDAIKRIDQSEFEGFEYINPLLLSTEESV
From the text: as §1, §2

PKCθ = biological target: T4, PKCθ (Homo sapiens, UniProt Q04759); test: Inhibition of novel PKCθ (Example 4); details: n = 3; for inhibition at 10 µM: 10 μM inhibitor, read-out: Percent inhibition of PKC activity, PKCθ; for IC50: ± SE, read-out: Log IC50 (M) PKCθ (converted)
T4 construct: purchased Invitrogen P2996
T4 sequence (Q04759 whole entry): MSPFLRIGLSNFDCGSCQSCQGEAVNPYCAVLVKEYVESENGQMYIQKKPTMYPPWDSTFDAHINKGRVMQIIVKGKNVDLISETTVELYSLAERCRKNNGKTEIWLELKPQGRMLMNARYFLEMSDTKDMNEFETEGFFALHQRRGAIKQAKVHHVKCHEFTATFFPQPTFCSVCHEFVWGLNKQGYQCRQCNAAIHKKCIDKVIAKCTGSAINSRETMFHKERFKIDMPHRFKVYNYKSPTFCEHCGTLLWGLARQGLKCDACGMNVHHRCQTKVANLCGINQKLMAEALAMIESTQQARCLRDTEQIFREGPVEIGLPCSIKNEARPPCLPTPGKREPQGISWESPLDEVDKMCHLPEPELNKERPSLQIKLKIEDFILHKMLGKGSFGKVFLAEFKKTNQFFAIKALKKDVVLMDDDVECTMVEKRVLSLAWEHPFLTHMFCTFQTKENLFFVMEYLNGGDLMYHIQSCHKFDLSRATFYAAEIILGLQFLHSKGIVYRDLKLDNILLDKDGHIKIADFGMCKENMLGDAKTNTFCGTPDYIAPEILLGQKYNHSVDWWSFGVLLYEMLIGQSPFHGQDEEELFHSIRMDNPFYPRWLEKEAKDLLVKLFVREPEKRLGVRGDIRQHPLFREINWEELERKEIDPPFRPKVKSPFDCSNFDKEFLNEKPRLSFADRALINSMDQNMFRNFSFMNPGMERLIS
From the text: Inhibition of PKC theta activity can be measured using the same primary phosphotransferase assay for PKCε except one substitutes recombinant human PKC theta purchased from Invitrogen for PKCε. PKC theta can also be assayed with a fluorescence polarization (FP) assay using the commercially available Protein Kinase C Assay Kit, Red, from Invitrogen (Product ID No P2941), essentially in accordance with the protocol supplied by the manufacturer. The substrate used is […] (MW 1561), which can be obtained from Invitrogen (Product ID No P2760). The isozyme PKC theta can be obtained from Invitrogen (Product ID No P2996).

PKCγ = biological target: T5, PKCγ (Homo sapiens, UniProt P05129); test: Inhibition of conventional PKCγ (Example 4); details: 10 μM inhibitor; n = 3; read-out: Percent inhibition of PKC activity, PKCγ
T5 construct: purchased Invitrogen (Carlsbad, Calif., USA)
From the text: as §1, §2

PKCε [3] = biological target: T1, PKCε; test: Primary PKCε phosphotransferase assay; design: FLAG; made in house; host or cells: COS-7
Description: The assay mixture can contain 2 ng FLAG-tagged human PKCε expressed and purified from COS-7 cells in 25 μl kinase buffer containing 20 mM Tris-HCl, pH 7.4, 0.25 mM EGTA, 0.1 mg/ml BSA, 0.72% TritonX-100, 10 mM MgCl2, 0.48 μg/μl L-α-phosphatidylserine (PS) and 0.107 μg/μl sn-1,2-dioleoylglecerol (DG) (Avanti Polar Lipids, Alabaster, Ala., USA), 2 μM K(Biotin)-[…], 2.5 μM ATP and 0.05 μCi [^32γ-P]ATP. After incubation at 27° C. for 90 min, the reaction is terminated by adding 12.5 μl of 7.5 M of guanidine hydrochloride. Eight microliters of reaction mixture is spotted onto a pre-cut streptavidin-coated SAM Biotin Capture membrane. […] The membrane is then air dried at room temperature for 60 min and radioactivity remaining on the membrane can be measured by liquid scintillation counting. Specific PKCε activity can then be calculated as the difference between cpms detected in the presence and absence of lipids (PS and DG). Maximal PKCε activity (positive control) can be detected in reactions lacking an inhibitor. Complete inhibition (negative control) can be measured in the presence of the general PKC inhibitor 5 μM bisindolylmaleimide I. The normalized percent inhibition (NPI) can be calculated at each concentration of inhibitor by the formula: […]
IC50 values can be calculated from normalized dose-response curves by nonlinear regression analysis. […]

[4] = selection criterion for Example 4, read-out: Ki for PKCε

IC50 (PKCε [1]; read-out: Log IC50 (converted)): 2020 nM
Compound: NC(C(=O)NC1COc2ccccc21)[C@H]1CC[C@H](C(=O)Nc2ccncc2)CC1 (stereo partly shown) [Compound 10]

IC50 (PKCε [1]; read-out: Log IC50 (converted)): 2370 nM
Compound: NC(C(=O)NCc1ccc(F)cc1)[C@H]1CC[C@H](C(=O)Nc2ccncc2)CC1 (stereo partly shown) [Compound 12]

Compound: Cl.NC(CNC(=O)C1(c2ccc(F)cc2)CCCC1)[C@H]1CC[C@H](C(=O)Nc2ccncc2)CC1 (stereo partly shown) [Compound 5]
Ki (PKCε [2]; n = 3, read-out: Ki (nM) PKCε): 12.8 nM | Ki (PKCε [2]; [4]): < 20 nM | IC50 (PKCε [2]; n = 3): 4.27e-08 M | IC50 (PKCε [1]; read-out: IC50): 42.6 nM | IC50 (PKCε [1]; read-out: Log IC50 (converted)): 42.7 nM | inhibition at 10 µM (PKCδ): 96.4 ± 1% | Ki (PKCδ): 125 nM | IC50 (PKCδ): 5.25e-07 M | activity against atypical PKCζ (PKCζ): almost no activity | inhibition at 10 µM (PKCζ): 6.3 ± 2.1% | inhibition at 10 µM (PKCθ): 94.4 ± 1% | Ki (PKCθ): 86.9 nM | IC50 (PKCθ): 3.63e-07 M | inhibition at 10 µM (PKCγ): 17 ± 1.3%

IC50 (PKCε [1]; read-out: Log IC50 (converted)): 121 nM
Compound: NC(CNC(=O)C1(c2ccc(F)cc2Cl)CCCC1)[C@H]1CC[C@H](C(=O)Nc2ccncc2)CC1 (stereo partly shown) [Compound 4]

IC50 (PKCε [1]; read-out: Log IC50 (converted)): 280 nM
Compound: CC(C)(C(=O)NCC(N)[C@H]1CC[C@H](C(=O)Nc2ccncc2)CC1)c1cccs1 (stereo partly shown) [Compound 7]

Compound: CC(C)(C(=O)NCC(N)[C@H]1CC[C@H](C(=O)Nc2ccncc2)CC1)c1ccc(Cl)cc1.Cl (stereo partly shown) [Compound 9]
Ki (PKCε [2]; n = 3, read-out: Ki (nM) PKCε): 9.3 nM | Ki (PKCε [2]; [4]): < 20 nM | IC50 (PKCε [2]; n = 3): 3.8e-08 M | IC50 (PKCε [1]; read-out: Log IC50 (converted)): 40 nM | inhibition at 10 µM (PKCδ): 98.9 ± 0.6% | Ki (PKCδ): 66.5 nM | IC50 (PKCδ): 2.69e-07 M | activity against atypical PKCζ (PKCζ): almost no activity | inhibition at 10 µM (PKCζ): 8.9 ± 1.8% | inhibition at 10 µM (PKCθ): 99.6 ± 1.3% | Ki (PKCθ): 67 nM | IC50 (PKCθ): 2.75e-07 M | inhibition at 10 µM (PKCγ): 30 ± 3.3%

Compound: NC(CC(=O)NCC1(c2ccc(Cl)cc2)CC1)[C@H]1CC[C@H](C(=O)Nc2ccncc2)CC1 (relative stereo) [Compound 2, trans-4-[1-Amino-2-[[[1-(4-chlorophenyl)cyclopropyl]methylamino]carbonyl]ethyl]-N-4-pyridinyl-cyclohexylcarboxamide]
IC50 (PKCε [3]): 1690 nM | IC50 (PKCε [1]): 3240 nM

IC50 (PKCε [1]; read-out: Log IC50 (converted)): 359 nM
Compound: NC(CNC(=O)C1CCc2cc(Cl)ccc21)[C@H]1CC[C@H](C(=O)Nc2ccncc2)CC1 (stereo partly shown) [Compound 8]

IC50 (PKCε [1]; read-out: IC50): 52.2 nM
Compound: NC(CNC(=O)C1(c2ccc(F)c(F)c2)CC1)[C@H]1CC[C@H](C(=O)Nc2ccncc2)CC1 (stereo partly shown) [Compound 6]

IC50 (PKCε [1]; read-out: Log IC50 (converted)): 146 nM
Compound: NC(CNC(=O)C1(c2ccc(F)cc2)CC1)[C@H]1CC[C@H](C(=O)Nc2ccncc2)CC1 (stereo partly shown) [Compound 3]

IC50 (PKCε [1]; read-out: Log IC50 (converted)): 3090 nM
Compound: NC(C(=O)NC1CCCc2ccccc21)[C@H]1CC[C@H](C(=O)Nc2ccncc2)CC1 (stereo partly shown) [Compound 11]
